According to BigSolDB 2.1:

O=C(CN1C(=O)S/C(=C\c2ccc(Cl)cc2)C1=O)N1CCN(CC(O)(Cn2cncn2)c2cc(F)ccc2F)CC1 (stereo not given)
solubility (mole fraction)
Conditions | 293.15 K | 298.15 K | 303.15 K | 308.15 K | 313.15 K
in ethanol | 0.000161 | 0.0002 | 0.000254 | 0.000312 | 0.000377
in n-hexane | 2.34e-06 | 3.14e-06 | 4.1e-06 | 5.16e-06 | 6.28e-06
in n-octanol | 0.00047 | 0.000578 | 0.000723 | 0.000882 | 0.00115
